What was measured:
[1] = test system: TEL-KIT/N822K-BaF3; assay: Proliferation of TEL-KIT/N822K-BaF3 cells (CCK-8); assay type: cell-based; details: Mus musculus; 72 hours, CCK-8; read-out: GI50 TEL-KIT/N822K-BaF3
Text: (§1) Compounds as provided herein were further evaluated for their inhibitory effects on proliferation of cancer cells by testing their effects on growth of cancer cells. In this example the following cells were used: primary mouse B cells BaF3 (purchased from ATCC), GIST-T1 cells of the human gastrointestinal stromal tumor cell line (expressing wild-type KIT gene) (purchased from Cosmo Bio Co., Ltd. (Japan)). The present lab further constructed and used the following: mouse Tel-Kit-BaF3 (stably expressing KIT wild-type kinase), mouse Tel-Kit/T670I-BaF3 (stably expressing KIT T670I mutant kinase), mouse Tel-Kit/V559A-BaF3 (stably expressing KIT V559A mutant kinase), mouse Tel-Kit/V559D-BaF3 (stably expressing KIT V559D mutant kinase), mouse Tel-Kit/V559G-BaF3 (stably expressing KIT V559G mutant kinase), mouse Tel-Kit/V560D-BaF3 (stably expressing KIT V560D mutant kinase), mouse Tel-Kit/L576P-BaF3 (stably expressing KIT L576P mutant kinase), mouse Tel-Kit/V654A-BaF3 (stably expressing KIT V654A mutant kinase), mouse Tel-Kit/V654A/V559D-BaF3 (stably expressing KIT V654A V559D mutant kinase), mouse Tel-Kit/T670E-BaF3 (stably expressing KIT T670E mutant kinase), mouse Tel-Kit/T670I/V559D-BaF3 (stably expressing KIT T670I V559D mutant kinase), mouse Tel-Kit/S709F-BaF3 (stably expressing KIT S709F mutant kinase), mouse Tel-Kit/D816E-BaF3 (stably expressing KIT D816E mutant kinase), mouse Tel-Kit/D816H-BaF3 (stably expressing KIT D816H mutant kinase), mouse Tel-Kit/D820E-BaF3 (stably expressing KIT D820E mutant kinase), mouse Tel-Kit/D820G-BaF3 (stably expressing KIT D820G mutant kinase), mouse Tel-Kit/D820Y-BaF3 (stably expressing KIT D820Y mutant kinase), mouse Tel-Kit/N822K-BaF3 (stably expressing KIT N822K mutant kinase), mouse Tel-Kit/Y823D-BaF3 (stably expressing KIT Y823D mutant kinase), mouse Tel-Kit/A829P-BaF3 (stably expressing KIT A829P mutant kinase), GIST-T1-T670I cells of the human gastrointestinal stromal tumor cell line (expressing KIT-T670I mutant gene). The above cell lines were constructed by: amplifying respectively the sequences of human KIT and various mutant kinase regions of KIT via PCR, inserting the fragments respectively into MSCV-Puro vectors having a N-terminal TEL fragment and/or a NPM fragment and/or a TPR fragment (purchased from Clontech), transfecting mouse BaF3 cells with the vectors by means of retrovirus to obtain stably transfected cells, removing the growth factor IL-3, and thereby eventually obtaining cell lines that depend on the transferred protein KIT or various mutants of KIT. […]

[2] = test system: TEL-KIT/V654A-BaF3; assay: Proliferation of TEL-KIT/V654A-BaF3 cells (CCK-8); assay type: cell-based; details: Mus musculus; 72 hours, CCK-8; read-out: GI50 TEL-KIT/V654A-BaF3
Text: as §1

[3] = test system: TEL-KIT/D820G-BaF3; assay: Proliferation of TEL-KIT/D820G-BaF3 cells (CCK-8); assay type: cell-based; details: Mus musculus; 72 hours, CCK-8; read-out: GI50 TEL-KIT/D820G-BaF3
Text: as §1

[4] = test system: TEL-KIT/D820Y-BaF3; assay: Proliferation of TEL-KIT/D820Y-BaF3 cells (CCK-8); assay type: cell-based; details: Mus musculus; 72 hours, CCK-8; read-out: GI50 TEL-KIT/D820Y-BaF3
Text: as §1

[5] = test system: TEL-KIT/T670I/V559D-BaF3; assay: Proliferation of TEL-KIT/T670I/V559D-BaF3 cells (CCK-8); assay type: cell-based; details: Mus musculus; 72 hours, CCK-8; read-out: GI50 TEL-KIT/T670I/V559D-BaF3
Text: as §1

[6] = test system: TEL-KIT/A829P-BaF3; assay: Proliferation of TEL-KIT/A829P-BaF3 cells (CCK-8); assay type: cell-based; details: Mus musculus; 72 hours, CCK-8; read-out: GI50 TEL-KIT/A829P-BaF3
Text: as §1

[7] = test system: TEL-KIT/T670E-BaF3; assay: Proliferation of TEL-KIT/T670E-BaF3 cells (CCK-8); assay type: cell-based; details: Mus musculus; 72 hours, CCK-8; read-out: GI50 TEL-KIT/T670E-BaF3
Text: as §1

[8] = test system: TEL-KIT/V654A/V559D-BaF3; assay: Proliferation of TEL-KIT/V654A/V559D-BaF3 cells (CCK-8); assay type: cell-based; details: Mus musculus; 72 hours, CCK-8; read-out: GI50 TEL-KIT/V654A/V559D-BaF3
Text: as §1

[9] = test system: TEL-KIT/S709F-BaF3; assay: Proliferation of TEL-KIT/S709F-BaF3 cells (CCK-8); assay type: cell-based; details: Mus musculus; 72 hours, CCK-8; read-out: GI50 TEL-KIT/S709F-BaF3
Text: as §1

[10] = test system: GIST-T1; assay: Proliferation of GIST-T1 cells (CCK-8); assay type: cell-based; details: Homo sapiens, GISTT1; 72 hours, CCK-8; read-out: GI50 GIST-T1
Text: as §1, with “gene).” for “gene). The above cell lines were constructed by: amplifying respectively the sequences of human KIT and various mutant kinase regions of KIT via PCR, inserting the fragments respectively into MSCV-Puro vectors having a N-terminal TEL fragment and/or a NPM fragment and/or a TPR fragment (purchased from Clontech), transfecting mouse BaF3 cells with the vectors by means of retrovirus to obtain stably transfected cells, removing the growth factor IL-3, and thereby eventually obtaining cell lines that depend on the transferred protein KIT or various mutants of KIT.”
(§2) The cells after incubation were detected using CCK-8 (purchased from MedChem Express, Shanghai, China) cell viability assay kit (CCK-8 may be reduced by dehydrogenase in living cells to a highly water-soluble yellow formazan product, and the amount of the resultant formazan is proportional to the number of living cells), the number of living cells were quantified with a microplate reader, and GI50 of the compounds and the control compounds were calculated (the results shown in Table 2 and Table 3).

[11] = test system: GIST-T1/T670I; assay: Proliferation of GIST-T1/T670I cells (CCK-8); assay type: cell-based; details: Homo sapiens, GISTT1; 72 hours, CCK-8; read-out: GI50 GIST-T1/T670I
Text: as §1, with “gene).” for “gene). The above cell lines were constructed by: amplifying respectively the sequences of human KIT and various mutant kinase regions of KIT via PCR, inserting the fragments respectively into MSCV-Puro vectors having a N-terminal TEL fragment and/or a NPM fragment and/or a TPR fragment (purchased from Clontech), transfecting mouse BaF3 cells with the vectors by means of retrovirus to obtain stably transfected cells, removing the growth factor IL-3, and thereby eventually obtaining cell lines that depend on the transferred protein KIT or various mutants of KIT.”
as §2

[12] = test system: TEL-KIT/D820E-BaF3; assay: Proliferation of TEL-KIT/D820E-BaF3 cells (CCK-8); assay type: cell-based; details: Mus musculus; 72 hours, CCK-8; read-out: GI50 TEL-KIT/D820E-BaF3
Text: as §1

[13] = test system: TEL-KIT/T670I-BaF3; assay: Proliferation of TEL-KIT/T670I-BaF3 cells (CCK-8); assay type: cell-based, mouse; details: Mus musculus; 72 hours, CCK-8; read-out: GI50 TEL-KIT/T670I-BaF3
Text: Compounds as provided herein were further evaluated for their inhibitory effects on proliferation of cancer cells by testing their effects on growth of cancer cells. In this example the following cells were used: primary mouse B cells BaF3 (purchased from ATCC), GIST-T1 cells of the human gastrointestinal stromal tumor cell line (expressing wild-type KIT gene) (purchased from Cosmo Bio Co., Ltd. (Japan)). The present lab further constructed and used the following: mouse Tel-Kit-BaF3 (stably expressing KIT wild-type kinase), mouse Tel-Kit/T670I-BaF3 (stably expressing KIT T670I mutant kinase), mouse Tel-Kit/V559A-BaF3 (stably expressing KIT V559A mutant kinase), mouse Tel-Kit/V559D-BaF3 (stably expressing KIT V559D mutant kinase), mouse Tel-Kit/V559G-BaF3 (stably expressing KIT V559G mutant kinase), mouse Tel-Kit/V560D-BaF3 (stably expressing KIT V560D mutant kinase), mouse Tel-Kit/L576P-BaF3 (stably expressing KIT L576P mutant kinase), mouse Tel-Kit/V654A-BaF3 (stably expressing KIT V654A mutant kinase), mouse Tel-Kit/V654A/V559D-BaF3 (stably expressing KIT V654A V559D mutant kinase), mouse Tel-Kit/T670E-BaF3 (stably expressing KIT T670E mutant kinase), mouse Tel-Kit/T670I/V559D-BaF3 (stably expressing KIT T670I V559D mutant kinase), mouse Tel-Kit/S709F-BaF3 (stably expressing KIT S709F mutant kinase), mouse Tel-Kit/D816E-BaF3 (stably expressing KIT D816E mutant kinase), mouse Tel-Kit/D816H-BaF3 (stably expressing KIT D816H mutant kinase), mouse Tel-Kit/D820E-BaF3 (stably expressing KIT D820E mutant kinase), mouse Tel-Kit/D820G-BaF3 (stably expressing KIT D820G mutant kinase), mouse Tel-Kit/D820Y-BaF3 (stably expressing KIT D820Y mutant kinase), mouse Tel-Kit/N822K-BaF3 (stably expressing KIT N822K mutant kinase), mouse Tel-Kit/Y823D-BaF3 (stably expressing KIT Y823D mutant kinase), mouse Tel-Kit/A829P-BaF3 (stably expressing KIT A829P mutant kinase), GIST-T1-T670I cells of the human gastrointestinal stromal tumor cell line (expressing KIT-T670I mutant gene). The above cell lines were constructed by: amplifying respectively the sequences of human KIT and various mutant kinase regions of KIT via PCR, inserting the fragments respectively into MSCV-Puro vectors having a N-terminal TEL fragment and/or a NPM fragment and/or a TPR fragment (purchased from Clontech), transfecting mouse BaF3 cells with the vectors by means of retrovirus to obtain stably transfected cells, removing the growth factor IL-3, and thereby eventually obtaining cell lines that depend on the transferred protein KIT or various mutants of KIT. The GIST-T1-T670I (expressing C-KIT-T670I mutant gene) cell line was constructed by our laboratory as follows: designing sgRNA that targeted a region around T670 of the KIT gene with CRISPR Design Tool (website: crispr.mit.edu, Zhang Feng Lab), cloning it into pSpCas9(BB)-2A-Puro vector; co-transfecting cells with the resultant vector and a single-stranded oligonucleotide having T670I site mutation that is near to T670, subjecting the resultant to antibiotics screening, followed by dilution, and monocellular culture in a 96-well plate; validating the site T670 of the cells by sequence detection via Sanger sequencing.

[14] = test system: TEL-KIT/Y823D-BaF3; assay: Proliferation of TEL-KIT/Y823D-BaF3 cells (CCK-8); assay type: cell-based; details: Mus musculus; 72 hours, CCK-8; read-out: GI50 TEL-KIT/Y823D-BaF3
Text: as §1

[15] = test system: TEL-KIT/D816H-BaF3; assay: Proliferation of TEL-KIT/D816H-BaF3 cells (CCK-8); assay type: cell-based; details: Mus musculus; 72 hours, CCK-8; read-out: GI50 TEL-KIT/D816H-BaF3
Text: as §1

[16] = test system: TEL-KIT/V559D-BaF3; assay: Proliferation of TEL-KIT/V559D-BaF3 cells (CCK-8); assay type: cell-based; details: Mus musculus; 72 hours, CCK-8; read-out: GI50 TEL-KIT/V559D-BaF3
Text: as §1

[17] = test system: TEL-KIT/V560D-BaF3; assay: Proliferation of TEL-KIT/V560D-BaF3 cells (CCK-8); assay type: cell-based; details: Mus musculus; 72 hours, CCK-8; read-out: GI50 TEL-KIT/V560D-BaF3
Text: as §1

[18] = test system: TEL-KIT/V559A-BaF3; assay: Proliferation of TEL-KIT/V559A-BaF3 cells (CCK-8); assay type: cell-based; details: Mus musculus; 72 hours, CCK-8; read-out: GI50 TEL-KIT/V559A-BaF3
Text: as §1

[19] = test system: TEL-KIT/D816E-BaF3; assay: Proliferation of TEL-KIT/D816E-BaF3 cells (CCK-8); assay type: cell-based; details: Mus musculus; 72 hours, CCK-8; read-out: GI50 TEL-KIT/D816E-BaF3
Text: as §1

[20] = test system: TEL-KIT/V559G-BaF3; assay: Proliferation of TEL-KIT/V559G-BaF3 cells (CCK-8); assay type: cell-based; details: Mus musculus; 72 hours, CCK-8; read-out: GI50 TEL-KIT/V559G-BaF3
Text: as §1

GI50 [1]: 1470 nM
GI50 [2]: 1410 nM
GI50 [3]: 337 nM
GI50 [4]: 435 nM
GI50 [5]: > 10000 nM
GI50 [6]: 580 nM
GI50 [7]: 4080 nM
GI50 [8]: 608 nM
GI50 [9]: 115 nM
GI50 [12]: 35 nM
GI50 [13]: > 10000 nM
GI50 [14]: 5870 nM
GI50 [15]: 651 nM
GI50 [16]: 10 nM
GI50 [17]: 3 nM
GI50 [18]: 905 nM
GI50 [19]: 174 nM
GI50 [20]: 8 nM
SMILES: Cc1ccc(NC(=O)c2ccc(CN3CCN(C)CC3)cc2)cc1Nc1nccc(-c2cccnc2)n1 [Imatinib, reference compound]
GI50 [10]: 15 nM
GI50 [11]: > 10000 nM
